Entries after “also recorded” stand apart in the source; their conditions may differ.

This is an account of results in patent US20190211397A1, “INHIBITORS OF GPR132 FOR USE IN PREVENTING AND/OR TREATING CHEMOTHERAPY-INDUCED NEUROPATHIC PAIN” (Fraunhofer-Gesellschaft zur Foerderung der angewandten …, priority 2016, published 2019).

One data set concerns TRPV1. As to the kind of experiment: Calcium imaging of DRG neurons: TRPV1 sensitization (two capsaicin stimuli, Δratio). The data set is classed as cell-based, mice. On the procedure: DRG primary cultures were prepared as described previously (Brenneis et al., 2011 b). Briefly, twenty to thirty murine dorsal roots ganglia (DRGs) were dissected from spinal segments and transferred directly into ice-cold Hanks' balanced salt solution with CaCI2 and MgCI2 (lnvitrogen, Carlsbad, Calif., USA). The DRGs were than incubated with Neurobasal Medium (lnvitrogen, Carlsbad, Calif., USA) containing 500 U/ml collagenase (Sigma, Deisenhofen, Germany) and 2.5 U/ml dispase II (Roche, Mannheim, Germany) for 75 mins at 37° C. After removal of the collagenase/dispase-solution cells were washed three times with medium containing 10% FCS, penicillin/streptomycin/gentamycin (lnvitrogen, Carlsbad, Calif., USA) and incubated in 0.05% trypsin for 10 min at 37° C. After two washing steps, the cells were mechanically dissociated with a 1 ml pipette and plated on Poly-L-lysine (Sigma) coated coverslips. After incubation at 37° C. for 2 h, Neurobasal Medium containing glutamine (2 mm), penicillin (100 U/ml), streptomycin (100 μg/ml), B-27 and gentamicin (50 μg/ml) was added to the cells and incubated overnight. The neurons were used for Calcium imaging the next day.
Calcium-imaging experiments were performed with a Leica calcium-imaging setup, consisting of a Leica DMI 4000 b inverted microscope equipped with a DFC360 FX (CCD) camera, Fura-2 filters, and an N-Plan 10×/0.25 Ph1 objective (all from Leica), was used. Images were taken every 2 s and were processed with the LAS AF-software (Leica). For each experiment, an area with large cell numbers 24 h after preparation (see DRG primary cultures) was chosen and 40-110 cells were monitored simultaneously. Cells were loaded with 5 μM fura-2-AM-ester (Biotium), incubated for 45-60 min at 37° C. and washed with ringer solution (145 mM NaCI, 1.25 mM CaCl2, 1 mM MgCl2, 5 mM KCI, 10 mM D-glucose, and 10 mM HEPES, adjusted to pH 7.3). Baseline measurements were performed with ringer solution at a flow rate of 1-2 ml/min at room temperature. For the activation of TRPV1 we used a solution of 200 nM capsaicin (Sigma), for TRPA1 activation 50 μM allyl isothiocyanate (AITC, Fluka Analytic) and for TRPM8 100 μM L-menthol (Sigma) dissolved in ringer solution. For TRP-channel sensitization, cells were incubated for 2 mins with different concentrations (50 nM-1000 nM) of (±) 9-HODE (Cayman) or (±) 13-HODE (Cayman) before the second stimulus took place. For control stimulations, the corresponding volume of DMSO (Sigma) was mixed in ringer solution and applied with the same flow rate. 10 μM of the PKA inhibitor H89 (Tocris) or 1 μM of the PKC inhibitor GF1 09203X (Tocris) was co-incubated with fura-2 for 45 mins. As positive control for PKA activation 40 iJM 8-bromo-cAMP (Cayman) and for PKC activation 500 nM bradykinin (Cayman) was used. At the end of each measurement, 50 mM KCl was applied to identify neurons.

The next data set deals with PKA. As to the kind of experiment: PKA inhibitor on TRPV1 sensitization in DRG neurons (calcium imaging). Particulars: H89 10 μM 45 mins. The data set is classed as cell-based, mice. The method, then: (§1) DRG primary cultures were prepared as described previously (Brenneis et al., 2011 b). Briefly, twenty to thirty murine dorsal roots ganglia (DRGs) were dissected from spinal segments and transferred directly into ice-cold Hanks' balanced salt solution with CaCI2 and MgCI2 (lnvitrogen, Carlsbad, Calif., USA). The DRGs were than incubated with Neurobasal Medium (lnvitrogen, Carlsbad, Calif., USA) containing 500 U/ml collagenase (Sigma, Deisenhofen, Germany) and 2.5 U/ml dispase II (Roche, Mannheim, Germany) for 75 mins at 37° C. […]
(§2) Calcium-imaging experiments were performed with a Leica calcium-imaging setup, consisting of a Leica DMI 4000 b inverted microscope equipped with a DFC360 FX (CCD) camera, Fura-2 filters, and an N-Plan 10×/0.25 Ph1 objective (all from Leica), was used. […] For each experiment, an area with large cell numbers 24 h after preparation (see DRG primary cultures) was chosen and 40-110 cells were monitored simultaneously. […]
(§3) TRPV1 sensitization can be mediated by PKA or PKC (Schnizler et al., 2008; Bhave et al., 2003). To investigate the signaling pathway between G2A and TRPV1 in DRG neurons, we determined which protein kinases are involved in sensitization of TRPV1. […]

Another data set concerns PKC. Description: PKC inhibitor on TRPV1 sensitization in DRG neurons (calcium imaging). The data set is classed as cell-based, mice. Particulars: GF109203X 1 μM 45 mins, 9-HODE 200 nM. The method, then: as §1, §2, §3
The test system of another data set is DRGs. As to the kind of experiment: Real-time RT-PCR of DRGs of oxaliplatin treated mice. In kind it is in vivo. Particulars: lumbal DRGs, day 10 after oxaliplatin treatment. On the procedure:
Lumbar DRGs (L2-L6) were dissected, quick-frozen in liquid nitrogen and stored at −80° C. Total RNA of the DRGs was isolated under RNase-free conditions using a mirVana miRNA Isolation Kit (Ambion) according to the manufacturer's instructions and quantified with a NanoDrop ND-1000 spectrophotometer (NanoDrop Technologies). The cDNA was synthesized from 200 ng RNA using a First Strand cDNA Synthesis Kit (Thermo Scientific) according to the manufacturer's instructions. Real-time RT-PCR was performed using an ABI Prism 7500 Sequence Detection System (Applied Biosystems) using Maxima SYBR Green qPCR Master Mix ROX as well as suitable primers for CYP2C37 (Luo et al., 1998), CYP2C38 (Zhang et al., 2003), CYP2C39 (Luo et al., 1998), CYP2J6 (Choudhary et al., 2003) and CYP3A11 (Chavan et al., 2015).
For analysis of GAPDH (Mm99999915_g1), G2A (Mm02620285_s1), 5-LOX (Mm01182747 m1), 12-LOX (Mm00545833_m1), 15-LOX (Mm00507789_m1) and COX-2 (Mm03294838_g1) assay primer from ThermoFisher Scientific were used. Reactions (total volume 10 μl) were performed in triplicate by incubating at 95° C. for 10 min, followed by 40 cycles of 15 s at 95° C. and 1 min at 60° C. […] Relative expression of target gene levels was determined using the ΔΔCt method, with Ct indicating the cycle number at which the signal of the PCR product crosses a defined threshold set within the exponential phase of the PCR. […]

The next data set relates to patients. The note with it: cited from earlier work.
The test system of the next data set is C57BL/6N mice. As to the kind of experiment: Mechanical pain thresholds of mice after oxaliplatin (dynamic plantar aesthesiometer). The data set is classed as in vivo. Particulars: oxaliplatin 3 mg/kg i.p. The source says: In all behavioral tests the experimenter was unaware of the treatment and the genotype of the mice. For all behavioral experiments we used only 6-12 weeks old C57BU6N mice purchased from commercial breeding companies (Charles River, Sulzfeld, Germany, Janvier, Le Geneset-Saint-lsle, FR). G2A and TRPV1 knockout strains were from Jackson laboratories. All experiments followed the ethics guidelines for investigations in conscious animals and the procedures were approved by the local Ethics Committee. […]
To determine the mechanical thresholds of mice, a Dynamic Plantar Aesthesiometer (Ugo Basile, Comerio, Italy) was used. […] Therefore, a steel rod pushed against the plantar side of the hind paw with linear ascending force (0-5 g over 10 s, in 0.5 g/s intervals) until a fast withdraw of the paw was observed The time between the first contact of the steel rod and the paw withdraw was measured in seconds (paw withdraw latency) and a cut-off time of 20 s was set.
To investigate whether or not alterations in concentrations of oxidized lipids occur during oxaliplatin-induced neuropathic pain, 3 mg/kg oxaliplatin (Nassini et al., 2011) was injected i.p. in C57BL/6N mice and the paw withdrawal latency over 10 days was monitored using a dynamic plantar aesthesiometer. […]

`CCCCCC(O)/C=C/C=C\CCCCCCCC(=O)O` (stereo not drawn) [13-HODE]: the “sensitization of TRPV1 (Δratio of first and second capsaicin stimulus)” value in the data set on TRPV1 (DRG neurons, lipid incubated 2 minutes before second capsaicin stimulus, 0 to 1000 nM) is “no strong sensitizing effect”. Further, the “calcium flux of second vs first capsaicin stimulus (Δratio)” value in the data set on TRPV1 (wildtype DRG neurons, lipid 200 nM 120 s, capsaicin 200 nM 30 s) was “does not increase the Δratio”.
Take `O=S(=O)(NCCNC/C=C/c1ccc(Br)cc1)c1cccc2cnccc12` [H89]: the “effect on PKA-dependent TRPV1 sensitization caused by 8-bromo-cAMP” value with PKA (8-bromo-cAMP 40 μM) was “inhibited”. In the data set with PKA (9-HODE 200 nM), the “effect on 9-HODE-induced TRPV1 sensitization” value is recorded as “not influenced; also recorded: failed to supress”.
With `CN(C)CCCn1cc(C2=C(c3c[nH]c4ccccc34)C(=O)NC2=O)c2ccccc21` [GF109203X], the “effect on 9-HODE-induced TRPV1 sensitization” value in the data set with PKC is reported as “supresses the 9-HODE-dependent sensitization of TRPV1; also recorded: prevented TRPV1 sensitization”.
As for `O=C1[O][Pt]2([NH][C@@H]3CCCC[C@H]3[NH]2)[O]C1=O` [oxaliplatin], the “mRNA expression of CYP2J6, 5-LOX, 12-LOX, 15-LOX and COX-2” value with DRGs is “No difference in mRNA expression”. The “patients in whom CIPN is induced” value in the data set on patients is listed as “up to 80%”. For the same compound, the “start of reduced mechanical paw withdrawal latencies” value with C57BL/6N mice was 4 days. Moreover, the “mechanical paw withdrawal latencies” value with C57BL/6N mice (C57BL/6N mice, monitored over 10 days) is reported as “significantly reduced mechanical paw withdrawal latencies”.
